Reference: patent publication US7189524B1, “Receptor ligands and methods of modulating receptors” (Amgen, Inc., priority 2002, dated 2007)

What was measured:
human adipocytes = assay: Inhibition of forskolin-stimulated lipolysis of human adipocytes (glycerol release); type: cell-based; settings: Adipocyte, 0.5 μM Forskolin, 16 hours, glycerol concentration, read-out: EC50 (anti-lipolysis)
TGR183 = TGR183 (Homo sapiens, UniProt Q9BXC0); settings: concentration of 50 μM, FIG. 3
Experimental: (§1) Aequorin catalyses the oxidation of coelenterazine, but only in the presence of Ca^2+ ions and thus can be used as an indicator of intracellular calcium levels. Briefly, the assays were performed using the following methodology.
(§2) CHO cells were transiently transfected with expression plasmids encoding TGR4b or TGR183 together with a plasmid encoding mitochondria-targeting apoaequorin. The plasmids were co-transfected with chimeric G protein Gαqi9, which has the C-terminal 9 amino acids from the Gαq protein replaced with the C-terminal 9 amino acids form the Gαi protein. Cells were harvested 24 hr later and loaded with coelenterazine for 2 hr at 37 C. Aequorin assay was performed on MicroLumat 96 luminometer (Perkin Elmer).

TGR4b = target: T1, TGR4b (Homo sapiens, UniProt Q8TDS4); assay: Aequorin assay for intracellular calcium, CHO cells transfected with TGR4b; type: cell-based; settings: summary of Table 1
T1 construct: expressed in transfected cells; host or cells: CHO cells, transient
Experimental: as §1, §2

T1 sequence (Q8TDS4 whole entry): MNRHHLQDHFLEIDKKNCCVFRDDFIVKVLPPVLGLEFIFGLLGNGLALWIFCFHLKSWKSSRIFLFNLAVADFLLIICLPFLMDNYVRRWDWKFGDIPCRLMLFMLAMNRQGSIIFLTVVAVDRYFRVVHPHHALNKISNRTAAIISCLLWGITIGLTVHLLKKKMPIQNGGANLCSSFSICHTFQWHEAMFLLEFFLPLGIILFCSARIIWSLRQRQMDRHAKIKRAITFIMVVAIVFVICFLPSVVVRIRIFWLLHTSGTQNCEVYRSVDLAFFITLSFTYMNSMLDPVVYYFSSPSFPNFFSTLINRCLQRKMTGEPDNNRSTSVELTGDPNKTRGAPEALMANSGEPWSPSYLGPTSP
Chain of TGR183 (Q9BXC0 whole entry): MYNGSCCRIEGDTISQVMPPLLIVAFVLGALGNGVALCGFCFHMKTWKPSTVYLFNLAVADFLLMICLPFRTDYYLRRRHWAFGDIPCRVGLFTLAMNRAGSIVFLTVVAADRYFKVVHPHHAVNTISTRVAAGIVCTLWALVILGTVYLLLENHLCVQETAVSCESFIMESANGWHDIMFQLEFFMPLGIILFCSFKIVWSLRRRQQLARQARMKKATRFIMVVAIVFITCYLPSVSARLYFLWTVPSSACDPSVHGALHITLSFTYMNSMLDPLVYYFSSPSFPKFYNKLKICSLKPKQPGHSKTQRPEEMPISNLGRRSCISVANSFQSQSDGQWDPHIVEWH

| Structure (SMILES) | EC50 (human adipocytes) [nM] | TGR183-mediated increase in intracellular calcium (TGR183) | activity on TGR4b in words (binding and activity assays) (TGR4b) |
| --- | --- | --- | --- |
| O=C(O)c1cccnc1 [nicotinic acid, 3-pyridinecarboxylic acid] | 62 | stimulated a TGR183-mediated increase in intracellular calcium | – |
| Cc1cnc(C(=O)O)c[n+]1[O-] | 6000 | – | – |
| Cl.O=C(O)Cc1cccnc1 [3-pyridineacetic acid HCl] | 770 | – | also exhibits activity |
| O=C(O)c1cnccn1 [2-pyrazinecarboxylic acid] | 6500 | – | also active in binding and activity assays |
| O=C(O)c1cncc(F)c1 [5-fluoro nicotinic acid] | – | – | much lower potency |
| NC(=O)c1cccnc1 [Nicotinamide] | – | – | completely inactive |

More lines, main results first:

| EC50 (human adipocytes) [nM] | Structure (SMILES) | TGR183-mediated increase in intracellular calcium (TGR183) | activity on TGR4b in words (binding and activity assays) (TGR4b) |
| --- | --- | --- | --- |
| 2800 | O=C(O)c1ccnnc1 [Pyridazine 4-carboxylic acid] | – | also active in binding and activity assays |
| 150 | Cl.O=C(Cl)c1cccnc1 [nicotinoyl chloride HCl] | – | agonist and binding activity similar to that of nicotinic acid |
